Experimental data as given in PMC6220894 (Food and chemical toxicology : an international journal …, 2018).
Like-named read-outs stand apart in the source and are kept apart here.

Legend:
[1] = tested on: Salmonella typhimurium TA 1535; assay type: cell-based; settings: pre-incubation
[2] = tested on: Salmonella typhimurium TA 102; test: Ames bacterial reverse mutation assay, plate incorporation method; assay type: cell-based
[3] = tested on: Salmonella typhimurium TA 1535; assay type: cell-based; settings: plate incorporation
[4] = tested on: Salmonella typhimurium TA 102; test: Ames bacterial reverse mutation assay, pre-incubation method; assay type: cell-based
[5] = tested on: Salmonella typhimurium TA 98; test: Ames bacterial reverse mutation assay, plate incorporation method; assay type: cell-based
[6] = tested on: Salmonella typhimurium TA 1537; test: Ames bacterial reverse mutation assay, pre-incubation method; assay type: cell-based
[7] = tested on: Salmonella typhimurium TA 1537; test: Ames bacterial reverse mutation assay, plate incorporation method; assay type: cell-based
[8] = tested on: Salmonella typhimurium TA 100; assay type: cell-based; settings: pre-incubation
[9] = tested on: Salmonella typhimurium TA 100; assay type: cell-based; settings: plate incorporation
[10] = tested on: Salmonella typhimurium TA 98; test: Ames bacterial reverse mutation assay, pre-incubation method; assay type: cell-based
plasma protein = settings: human plasma; 1 µM; mean ± SE
in vitro = settings: both, human, plasma, pH 7.4
[11] = +S9, positive control 0.0025 mg/plate
[12] = +S9, positive control 0.01 mg/plate
[13] = −S9, positive control 0.01 mg/plate
[14] = −S9, positive control 0.05 mg/plate
[15] = −S9, positive control 4 µL/plate

Nc1ccc2cc3ccccc3cc2c1 [2-aminoanthracene, reference compound]
Mean plate counts (revertant colonies) [1, 11]: 132.7±9.9 | Mean plate counts (revertant colonies) [2, 12]: 1716.7±134.6 | Mean plate counts (revertant colonies) [3, 11]: 150.0±12.5 | Mean plate counts (revertant colonies) [4, 12]: 1395.3±153.1 | Mean plate counts (revertant colonies) [5, 11]: 741.3±63.8 | Mean plate counts (revertant colonies) [6, 11]: 125.0±5.0 | Mean plate counts (revertant colonies) [7, 11]: 133.3±8.1 | Mean plate counts (revertant colonies) [8, 11]: 1118.0±42.6 | Mean plate counts (revertant colonies) [9, 11]: 1042.0±61.3 | Mean plate counts (revertant colonies) [10, 11]: 958.0±83.6

Nc1ccc([N+](=O)[O-])cc1N [4-NOPD, 4-nitro-o-phenylenediamine, reference compound]
Mean plate counts (revertant colonies) [5, 13]: 296.0±8.0 | Mean plate counts (revertant colonies) [6, 14]: 120.0±12.0 | Mean plate counts (revertant colonies) [7, 14]: 107.0±6.2 | Mean plate counts (revertant colonies) [10, 13]: 674.0±34.7

COc1ccc(CCN(C)CCCC(C#N)(c2ccc(OC)c(OC)c2)C(C)C)cc1OC (stereo not shown) [Verapamil, reference compound]
fb (bound fraction) (plasma protein): 0.907 ± 0.007

CC(=O)CC(c1ccccc1)c1c(O)c2ccccc2oc1=O (stereo not shown) [Warfarin, reference compound]
fraction unbound at 4 h, 1 µM (in vitro): 0.035 ± 0.003

COS(C)(=O)=O [methyl methanesulphonate, methyl methanesulfonate, reference compound]
Mean plate counts (revertant colonies) [2, 15]: 2510.7±123.6 | Mean plate counts (revertant colonies) [4, 15]: 1238.7±126.0

[N-]=[N+]=[N-].[Na+] [sodium azide, reference compound]
Mean plate counts (revertant colonies) [1, 13]: 974.7±41.1 | Mean plate counts (revertant colonies) [3, 13]: 966.7±12.2 | Mean plate counts (revertant colonies) [8, 13]: 1181.3±50.6 | Mean plate counts (revertant colonies) [9, 13]: 870.7±39.3
